Experimental data reported in PMC10770758, “Protocatechuate hydroxylase is a novel group A flavoprotein monooxygenase with a unique substrate recognition mechanism” (The Journal of Biological Chemistry, 2023).

Assays:
Format in all cases: binding
[1] = target: T1, PkPobA (Pigmentiphaga kullae, UniProt A0A4Q7NA79); assay: HPLC of heat-released flavin; absorption spectrum; conditions: prosthetic group
T1 construct: gene EV675_5624; codon-optimised gene in modified pET28a, His-tagged, E. coli BL21 Star (DE3), HisTrap
T1 sequence (A0A4Q7NA79 1-391): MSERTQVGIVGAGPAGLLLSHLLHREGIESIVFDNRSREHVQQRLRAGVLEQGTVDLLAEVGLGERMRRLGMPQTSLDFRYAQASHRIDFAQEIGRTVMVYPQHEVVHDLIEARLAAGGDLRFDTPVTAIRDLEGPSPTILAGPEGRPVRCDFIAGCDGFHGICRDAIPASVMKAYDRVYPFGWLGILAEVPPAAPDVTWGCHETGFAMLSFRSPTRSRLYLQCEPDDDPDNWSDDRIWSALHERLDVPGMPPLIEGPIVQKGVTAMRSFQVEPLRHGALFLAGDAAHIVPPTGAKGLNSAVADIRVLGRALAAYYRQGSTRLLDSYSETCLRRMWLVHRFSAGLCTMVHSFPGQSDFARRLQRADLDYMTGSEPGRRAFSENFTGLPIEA

[2] = target: T2, OtPobA (Ottowia thiooxydans, UniProt A0ABV2Q8W8); assay: HPLC of heat-released flavin; absorption spectrum; conditions: prosthetic group
T2 construct: gene ABIE13_002600; codon-optimised gene in modified pET28a, His-tagged, E. coli BL21 Star (DE3), HisTrap
T2 sequence (A0ABV2Q8W8 1-392): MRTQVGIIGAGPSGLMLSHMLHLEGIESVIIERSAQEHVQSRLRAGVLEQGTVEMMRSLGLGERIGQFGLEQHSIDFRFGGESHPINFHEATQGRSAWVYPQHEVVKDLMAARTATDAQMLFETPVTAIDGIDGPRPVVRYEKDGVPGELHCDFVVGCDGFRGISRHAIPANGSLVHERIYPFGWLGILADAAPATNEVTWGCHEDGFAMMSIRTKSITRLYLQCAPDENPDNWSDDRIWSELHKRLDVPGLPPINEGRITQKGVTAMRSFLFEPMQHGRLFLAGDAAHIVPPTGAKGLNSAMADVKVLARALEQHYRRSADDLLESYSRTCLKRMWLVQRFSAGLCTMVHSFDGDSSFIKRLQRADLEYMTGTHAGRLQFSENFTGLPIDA

[3] = target: T3, XaPobA (Xylophilus ampelinus, UniProt A0AAJ6N6I2); assay: X-ray crystal structure; HPLC of heat-released flavin; conditions: oxidized form, prosthetic group
T3 construct: gene praI; codon-optimised gene in modified pET28a, 6xHis tag, E. coli BL21 Star (DE3), HisTrap; homodimer in crystal
T3 sequence (A0AAJ6N6I2 1-391): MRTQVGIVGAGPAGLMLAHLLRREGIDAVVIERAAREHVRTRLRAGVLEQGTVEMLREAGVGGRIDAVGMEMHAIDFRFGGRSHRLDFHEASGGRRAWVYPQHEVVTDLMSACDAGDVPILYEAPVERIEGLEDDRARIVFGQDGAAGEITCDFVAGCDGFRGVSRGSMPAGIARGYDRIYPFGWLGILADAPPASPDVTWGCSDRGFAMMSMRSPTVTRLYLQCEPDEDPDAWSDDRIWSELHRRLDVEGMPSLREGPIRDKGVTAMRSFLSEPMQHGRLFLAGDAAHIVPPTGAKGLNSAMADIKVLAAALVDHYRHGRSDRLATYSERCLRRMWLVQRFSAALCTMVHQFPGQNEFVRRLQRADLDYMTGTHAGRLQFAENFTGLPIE

## Cc1cc2nc3c(=O)[nH]c(=O)nc-3n(C[C@H](O)[C@H](O)[C@H](O)COP(=O)(O)OP(=O)(O)OC[C@H]3O[C@@H](n4cnc5c(N)ncnc54)[C@H](O)[C@@H]3O)c2cc1C [FAD, flavin adenine dinucleotide]
[1]
  HPLC of heat-released flavin; absorption spectrum: indicating that XaPobA, OtPobA, and PkPobA use FAD as a prosthetic group
[2]
  HPLC of heat-released flavin; absorption spectrum: indicating that XaPobA, OtPobA, and PkPobA use FAD as a prosthetic group
[3]
  X-ray crystal structure; HPLC of heat-released flavin: homodimer, with each unit binding an oxidized form of FAD in its active site
